Measurements taken from paper PMC10821124, “Dimeric 3,5-Bis(benzylidene)-4-piperidones: Tumor-Selective Cytotoxicity and Structure-Activity Relationships” (Medicines, 2024).

Assays:
[1] = test system: human promyelocytic leukemia HL-60 cells; assay: Cytotoxicity, MTT method, HL-60 cells; format: cell-based; conditions: for CC50: Homo sapiens, HL-60, 48 h, MTT, mean ± SD, read-out: CC50 HL-60; for SI (selectivity index) HL-60: average CC50 non-malignant cells / CC50 HL-60
Experimental: (§1) Human promyelocytic leukemia [HL-60 (RCB3683)] (purchased from Riken Cell Bank, Tsukuba, Japan) was cultured at 37 °C in RPMI1640 medium (Fujifilm Wako Pure Chemical Co., Osaka, Japan) supplemented with 10% heat (56 °C, 30 min) inactivated FBS (Sigma-Aldrich Inc. St. Louis, MO, USA), 100 U/mL penicillin G, and 100 µg/mL streptomycin sulfate in a humidified 5% CO2 incubator (MCO-170 AICUVD-P, Panasonic Healthcare Co., Ltd., Gunma, Japan). Human oral squamous cell carcinoma (OSCC) cell lines derived from tongue [HSC-2 (RCB1945), HSC-3 (RCB1975), HSC-4 (RCB1902)] (Riken Cell Bank), and human normal oral cells (gingival fibroblasts, HGF; pulp cell, HPC; periodontal ligament fibroblast, HPLF), established from the first premolar extracted tooth in the lower jaw and periodontal tissues of a child, according to the guidelines of Meikai University Ethic Committee (No. A0808), were cultured in DMEM medium (Fujifilm Wako Pure Chemical Co.) supplemented with 10% FBS and antibiotics. The compounds in Series 2–4 were evaluated against HL-60, HSC-2, HSC-3, HSC-4, HGF, HPC, and HPLF cells based on a literature procedure, as described previously. In brief, near confluent cells were incubated in triplicate for 48 h at 37 °C with different concentrations ([…], 6.3, 12.5, 25, 50, 100 µM) of the compounds; then, viable cell numbers were measured using the MTT method. From the dose–response curve, a 50% cytotoxic concentration (CC50) was determined. All samples were dissolved in dimethylsulfoxide (DMSO). The toxicity of DMSO alone was calculated and subtracted. The CC50 values were determined from dose–response curves.

[2] = test system: human oral squamous cell carcinoma HSC-2 cells; assay: Cytotoxicity, MTT method, HSC-2 cells; format: cell-based; conditions: for CC50: Homo sapiens, HSC-2, 48 h, MTT, mean ± SD, read-out: CC50 HSC-2; for SI (selectivity index) HSC-2: average CC50 non-malignant cells / CC50 HSC-2
Experimental: as §1

[3] = test system: human oral squamous cell carcinoma HSC-4 cells; assay: Cytotoxicity, MTT method, HSC-4 cells; format: cell-based; conditions: for CC50: Homo sapiens, HSC-4, 48 h, MTT, mean ± SD, read-out: CC50 HSC-4; for SI (selectivity index) HSC-4: average CC50 non-malignant cells / CC50 HSC-4
Experimental: as §1

[4] = test system: human tumour cell lines HL-60, HSC-2, HSC-3, HSC-4; assay: Cytotoxicity, average over the four human tumour cell lines; format: cell-based; conditions: for CC50: Homo sapiens, average of HL-60, HSC-2, HSC-3, HSC-4, read-out: AVE. CC50, human tumour cell lines; for AVE SI: average of the four SI values; for PSE (potency-selectivity expression): product of reciprocal of average CC50 (neoplastic cells) and average SI times 100; for CC50 values in all four bioassays (range in words): HL-60, HSC-2, HSC-3, HSC-4
Experimental: as §1

[5] = Cytotoxicity, MTT method, HPC non-malignant cells; format: cell-based, human; conditions: human, pulp cells (HPC), non-malignant, mean ± SD
Experimental: as §1

[6] = Cytotoxicity, MTT method, HGF non-malignant cells; format: cell-based, human; conditions: human, gingival fibroblasts (HGF), non-malignant, mean ± SD
Experimental: as §1

[7] = test system: human oral squamous cell carcinoma HSC-3 cells; assay: Cytotoxicity, MTT method, HSC-3 cells; format: cell-based; conditions: for CC50: Homo sapiens, HSC-3, 48 h, MTT, mean ± SD, read-out: CC50 HSC-3; for SI (selectivity index) HSC-3: average CC50 non-malignant cells / CC50 HSC-3
Experimental: as §1

[8] = Cytotoxicity, average over the three human normal cells; format: cell-based; conditions: human, average of HGF, HPC, HPLF; read-out: AVE CC50, human normal cells
Experimental: as §1

[9] = Cytotoxicity, MTT method, HPLF non-malignant cells; format: cell-based, human; conditions: human, periodontal ligament fibroblasts (HPLF), non-malignant, mean ± SD
Experimental: as §1

Structure (SMILES) | CC50 [1] [µM] | SI (selectivity index) HL-60 [1] | CC50 [2] [µM] | SI (selectivity index) HSC-2 [2] | CC50 [3] [µM] | SI (selectivity index) HSC-4 [3] | CC50 [4] [µM] | AVE SI [4] | PSE (potency-selectivity expression) [4] | CC50 at 48 h [5] [µM] | CC50 at 48 h [6] [µM] | CC50 [7] [µM] | SI (selectivity index) HSC-3 [7] | CC50 at 48 h [8] [µM] | CC50 at 48 h [9] [µM] | CC50 values in all four bioassays (range in words) [4]
O=C1/C(=C/c2ccccc2)CN(C(=O)C(=O)N2C/C(=C\c3ccccc3)C(=O)/C(=C/c3ccccc3)C2)C/C1=C\c1ccccc1 [Compound 2a] | 0.11 ± 0.009 | 29.6 | 0.085 ± 0.013 | 38.4 | 0.2 ± 0.011 | 16.3 | 0.14 | 26.5 | > 100 | 0.68 ± 0.073 | 3.8 ± 0.52 | 0.15 ± 0.022 | 21.7 | 3.26 | 5.3 ± 0.5 | 
O=C1/C(=C/c2ccc(F)cc2)CN(C(=O)C(=O)N2C/C(=C\c3ccc(F)cc3)C(=O)/C(=C/c3ccc(F)cc3)C2)C/C1=C\c1ccc(F)cc1 [Compound 2b] | 0.037 ± 0.017 | 40.5 | 0.037 ± 0.009 | 40.5 | 0.033 ± 0.009 | 45.5 | 0.04 | 37.3 |  | 1.4 ± 0.11 | 1.2 ± 0.1 | 0.066 ± 0.008 | 22.7 | 1.5 | 1.9 ± 0.36 | double-digit nanomolar range
O=C1/C(=C/c2ccc(Cl)c(Cl)c2)CN(C(=O)C(=O)N2C/C(=C\c3ccc(Cl)c(Cl)c3)C(=O)/C(=C/c3ccc(Cl)c(Cl)c3)C2)C/C1=C\c1ccc(Cl)c(Cl)c1 [Compound 2d] | 8.4 ± 0.017 | 4.08 | 5.9 ± 0.12 | 5.81 | 6.4 ± 0.15 | 5.36 | 7.28 | 4.83 |  | 23 ± 3.1 | 36 ± 3.1 | 8.4 ± 0.87 | 4.08 | 34.3 | 44 ± 3.2 | 
Cc1ccc(/C=C2\CN(C(=O)C(=O)N3C/C(=C\c4ccc(C)cc4)C(=O)/C(=C/c4ccc(C)cc4)C3)C/C(=C\c3ccc(C)cc3)C2=O)cc1 [Compound 2e] | 2.7 ± 0.78 | 16.7 | 1.8 ± 0.25 | 25.0 | 2.3 ± 0.25 | 19.6 | 2.78 | 18.0 |  | 23 ± 1.2 | 45 ± 4.6 | 4.3 ± 1.1 | 10.5 | 45 | 67 ± 4.5 | 
COc1ccc(/C=C2\CN(C(=O)C(=O)N3C/C(=C\c4ccc(OC)c(OC)c4)C(=O)/C(=C/c4ccc(OC)c(OC)c4)C3)C/C(=C\c3ccc(OC)c(OC)c3)C2=O)cc1OC [Compound 2f] | 0.19 ± 0.026 | 65.8 | 0.42 ± 0.025 | 29.8 | 0.16 ± 0.024 | 78.1 | 0.25 | 57.0 |  | 2.4 ± 0.7 | 24 ± 1.1 | 0.23 ± 0.097 | 54.4 | 12.5 | 11 ± 0.98 | 
COc1cc(/C=C2\CN(C(=O)C(=O)N3C/C(=C\c4cc(OC)c(OC)c(OC)c4)C(=O)/C(=C/c4cc(OC)c(OC)c(OC)c4)C3)C/C(=C\c3cc(OC)c(OC)c(OC)c3)C2=O)cc(OC)c1OC [Compound 2g] | 0.037 ± 0.002 | 15.4 | 0.063 ± 0.009 | 9.05 | 0.088 ± 0.029 | 6.48 | 0.06 | 11.8 | > 100 | 0.28 ± 0.07 | 0.47 ± 0.14 | 0.035 ± 0.006 | 16.3 | 0.57 | 0.95 ± 0.012 | double-digit nanomolar range
O=C1/C(=C/c2ccccc2)CN(C(=O)CC(=O)N2C/C(=C\c3ccccc3)C(=O)/C(=C/c3ccccc3)C2)C/C1=C\c1ccccc1 [Compound 3a] | 0.046 ± 0.009 | 20.0 | 0.05 ± 0.001 | 18.4 | 0.084 ± 0.005 | 11.0 | 0.06 | 17.4 |  | 0.36 ± 0.1 | 1.1 ± 0.01 | 0.046 ± 0.026 | 20.0 | 0.92 | 1.3 ± 0.33 | double-digit nanomolar range
Cc1ccc(/C=C2\CN(C(=O)CC(=O)N3C/C(=C\c4ccc(C)cc4)C(=O)/C(=C/c4ccc(C)cc4)C3)C/C(=C\c3ccc(C)cc3)C2=O)cc1 [Compound 3e] | 1.4 ± 0.15 | 17.6 | 1.6 ± 0.39 | 15.4 | 1.9 ± 0.15 | 13.0 | 1.78 | 14.3 |  | 19 ± 2.7 | 20 ± 1.3 | 2.2 ± 0.2 | 11.2 | 24.7 | 35 ± 4.2 | 
COc1ccc(/C=C2\CN(C(=O)CC(=O)N3C/C(=C\c4ccc(OC)c(OC)c4)C(=O)/C(=C/c4ccc(OC)c(OC)c4)C3)C/C(=C\c3ccc(OC)c(OC)c3)C2=O)cc1OC [Compound 3f] | 0.26 ± 0.021 | 5.77 | 0.34 ± 0.076 | 4.41 | 0.128 ± 0.014 | 11.7 | 0.23 | 7.35 |  | 1.6 ± 0.078 | 1.1 ± 0.084 | 0.2 ± 0.14 | 7.50 | 1.5 | 1.8 ± 0.05 | 
COc1cc(/C=C2\CN(C(=O)CC(=O)N3C/C(=C\c4cc(OC)c(OC)c(OC)c4)C(=O)/C(=C/c4cc(OC)c(OC)c(OC)c4)C3)C/C(=C\c3cc(OC)c(OC)c(OC)c3)C2=O)cc(OC)c1OC [Compound 3g] | 0.03 ± 0.0002 | 6.33 | 0.065 ± 0.016 | 2.92 | 0.038 ± 0.009 | 5.00 | 0.04 | 4.92 | > 100 | 0.18 ± 0.03 | 0.093 ± 0.02 | 0.035 ± 0.005 | 5.43 | 0.19 | 0.3 ± 0.047 | double-digit nanomolar range
O=C1/C(=C/c2ccccc2)CN(CCCN2C/C(=C\c3ccccc3)C(=O)/C(=C/c3ccccc3)C2)C/C1=C\c1ccccc1 [Compound 4] | 0.18 ± 0.011 | 22.2 | 0.21 ± 0.032 | 19.1 | 0.083 ± 0.021 | 48.2 | 0.21 | 25.2 | > 100 | 3.7 ± 2 | 3 ± 0.21 | 0.35 ± 0.11 | 11.4 | 4 | 5.3 ± 0.61 | 
COc1cc(/C=C/C(=O)CC(=O)/C=C/c2ccc(O)c(OC)c2)ccc1O [Curcumin, reference compound] | 7.8 ± 0.58 | 5.81 | 10 ± 0.81 | 4.53 | 14 ± 3.2 | 3.24 | 12 | 4.10 |  | 34 ± 6.8 | 70 ± 12 | 16 ± 2.7 | 2.83 | 45.3 | 32 ± 6.4 | 
